Patent publication US11986542B2, “Composition for enhancing hair fiber properties” (The Procter & Gamble Company, priority 2016, dated 2024)

Assays:
[1] = Log P (octanol-water partition coefficient)
From the text: “Log P” means octanol-water partition coefficient and is a physical property that describes a chemical's lipophilic and hydrophophilic characteristics. Log P is the logarithm of the ratio of a chemical's concentration in the octanol phase to its concentration in the aqueous phase of a two-phase system at equilibrium. The partition coefficient is a ratio of concentrations of un-ionized compound between the two solutions. Log P=Log 10 (partition coefficient). Partition coefficient=[organic]/[aqueous], where [organic] is the concentration of the compound of interest in the organic solvent (e.g., octanol), and [aqueous] is the concentration of the compound of interest in the water phase.

[2] = Combing force for dry hair, aqueous/ethanol leave-on treatment; details: Table 2/FIG. 2; physically damaged virgin hair; aqueous/ethanol leave-on formulation, 2.5% total conditioning agent
From the text: (§1) This double combing apparatus is attached to an Instron Model 5564. The switch is combed 5 times with a fine-tooth comb and hanged onto the Instron load cell. Then, the hair switch is placed in the double comb apparatus. The Instron pulls the hair vertically at a rate of 10 mm/min until the hair switch clears the final comb. The peak force as the switch passes through the top comb is reported.

[3] = Combing force for dry hair, aqueous/ethanol treatment; details: Table 1/FIG. 1; moderately oxidatively-damaged hair; aqueous/ethanol formulation, 2.5% total conditioning agent; peak force
From the text: A moderately oxidatively-damaged hair switch or physically damaged virgin hair switch (with weight of 4 gram and length of 8 inches) is placed in an apparatus containing two combs separated by a vertical distance of 6 inches. This double combing apparatus is attached to an Instron Model 5564. The switch is combed 5 times with a fine-tooth comb and hanged onto the Instron load cell. Then, the hair switch is placed in the double comb apparatus. The Instron pulls the hair vertically at a rate of 10 mm/min until the hair switch clears the final comb. The peak force as the switch passes through the top comb is reported. […] EtOH/H2O Leave-on Treatments Single material mixtures: 500 mg of a lipid or a lipid enhancing agent is weighed into a 20 mL vial. 19.5 g of 50/50(v/v) ethanol water mixture is then added to the vial and capped. The mixture is then agitated for 30 seconds. Shampoo Washing Protocol: An amount of 0.10 g of clarifying shampoo per gram of hair is spread via a syringe onto separate hair switch. Each application consists of adding shampoo to the hair, milking for 30 seconds followed by rinsing for 30 seconds. Shampoo is then reapplied (0.[…]), milked for 30 seconds and rinsed for 30 seconds. Leave-on Treatments with Aqueous/Ethanolic Lipid Compositions a. […] The combing force is measured for each switch and an average for the three switches is calculated. […]

[4] = Combing force after leave-on hair treatment using neat material; details: 0.4 ml neat material on 4 g switch, average of three switches; for Combing force, 1 Wash (gf): after 1 clarifying shampoo wash; for Combing force, 5 Washes (gf): after 5 clarifying shampoo washes
From the text: as §1
The treatment is repeated to two additional switches. The treated hair switches are allowed to rest for 24 hours under controlled temperature and relative humidity conditions (27° C. and 50% RH). After this time period, each hair switch is washed with a clarifying shampoo (see shampoo washing protocol below) and allowed to air dry for 24 hours under controlled temperature and relative humidity conditions (27° C. and 50% RH). The combing force is measured for each switch and an average for the three switches is calculated. […] Linoleic acid • b.

Compound | logP ([1]; octanol/water) | Combing Force (gf) [2] | other results
CCCCCCCC/C=C\CCCCCCCCCCCC(=O)O [Erucic acid, reference compound] | 9 | – | –
CCCCCCCC/C=C\CCCCCCCC(=O)OCC(O)CO (stereo not drawn) [Glyceryl alpha-monooleate] | 6.3 | 268 gf | Combing Force (gf) [3]: 157 gf
CCCCCCCC/C=C\CCCCCCCC(=O)O [Oleic acid] | 7 | – | Combing force, 1 Wash (gf) [4]: 24 gf; Combing force, 5 Washes (gf) [4]: 58 gf; Combing Force (gf) [3]: 161 gf
CCCCCCCCCCCCCCCCCC(=O)O [Stearic Acid, reference compound] | 8 | – | –
Propyleneglycol monooleate [reference compound] | – | – | logP ([1]; Table 3): 7.5

Continued, in another order:

logP ([1]; octanol/water) | Compound | Combing Force (gf) [2] | other results
6.9 | CCCCCCCC/C=C\CCCCCCCC(=O)OCCO [Ethyleneglycol monooleate] | – | –
6.4 | CCCCC/C=C\C/C=C\CCCCCCCC(=O)O [Linoleic Acid, reference compound] | – | Combing force, 1 Wash (gf) [4]: 27 gf; Combing force, 5 Washes (gf) [4]: 96 gf
8 | CCCCCCCC/C=C\CCCCCCCC(=O)OC [Methyl Oleate, reference compound] | – | –
7 | CCCCCCCC/C=C\CCCCCCCCO [Oleyl Alcohol] | 246 gf | –
6.6 | CCCCCC/C=C\CCCCCCCC(=O)O [Palmitoleic Acid] | 76 gf | –
